{"source": "patent US7105635B2", "about": "“Cyclic beta-sheet peptides useful as apoptotic/cytotoxic cancer agents” (The University of Toledo, priority 2002, dated 2006)", "key": {"[1]": {"tested_on": "CEM cells", "assay": "[3H]-thymidine incorporation into DNA of CEM cells", "format": "cell-based, human", "details": "for EC50: CEM cells, FIG. 8, read-out: EC50, inhibition of thymidine incorporation into DNA", "procedure": "FIG. 8 is a graph showing percent inhibition of thymidine incorporation as a function of peptide concentration. Each well of a microtiter plate received 200,000 CEM cells in log phase of growth, suspended in 50 μl complete medium. The same volume of diluted peptide, either linear or cyclized, was added to achieve the final concentrations shown. After a 1 -hour incubation at 37 degrees C., 1 μCi of [^3H]-thymidine in 25 μl medium was added, and the plates were incubated another 3 hours prior to harvesting. Control cells were incubated without either peptide, but with the same volume of medium.\nThe peptide called L1AD3, Seq. ID No. 1, prevents the proliferation of cancerous human T-lymphocytes (CEM cell line) by inhibiting incorporation of thymidine into DNA.\n(§1) The L1AD3 peptide stops tumor cell division in both Jurkat and CEM cells with an EC50 of approximately 5 μM, as shown in FIG. 8. This is indicated by the inhibition of thymidine incorporation into DNA. […] In contrast to CTX, which rapidly depolarized skeletal muscle (Dufton and Hider, 1991), and which at 1 μM concentrations causes cessation of beating of embryonic chicken heart cells within 5–10 seconds, the L1AD3 peptide at 40 μM concentrations has no effect upon the beating of heart cells over 2 hours of observation. Therefore, it is believed that the L1AD3 peptide, along with the other seven peptides, is not harmful to the heart, in contrast to native CTX."}, "[2]": {"tested_on": "CEM cells", "assay": "luciferin/luciferase bioluminescence assay of total ATP in CEM cells", "format": "cell-based, human", "procedure": "FIG. 9 is a graph showing the amounts of total ATP present in cell lysates following incubation of CEM cells with peptide analogs. Cyclized peptides were added at double their final concentration, which was 20 μM, to triplicate wells of a black 96-well reaction plate. CEM cells (50,000 per well) were added in the same volume, and the plate was incubated 30 minutes at 37 degrees. Lysis buffer (Sigma) was added, followed by luciferin/luciferase assay buffer (Molecular Probes). The plate was sealed with a clear plastic film and read using a Packard Top-Count reader. Cells with medium only had ATP levels of 1073±160 in arbitrary luminescence units. Peptide analogs are identified by single amino acid modifications.\nChanges in cellular energy levels can contribute to the process of cytotoxicity. ATP was measured using a 96-well luciferin/luciferase bioluminescence assay system and found a 60% reduction in ATP after 30 minutes' incubation of CEM cells with 20 μM L1AD3, as shown in FIG. 9. While somewhat large, this reduction of ATP is consistent with apoptosis, inasmuch as necrosis tends to occur when ATP levels drop to below 30% of control."}, "[3]": {"tested_on": "CEM cells", "assay": "biotin-avidin sorbant binding assay, adherent CEM cells", "parameters": "species or system human", "details": "for binding after pretreatment of cells with trypsin: solid-phase assay", "description": "CEM cells were held on the surface of 96-well plates previously coated with anti-human MHC-1 antibody (anti-HLA-A,B,C). After plates containing adherent cells were blocked with bovine albumin and washed with PBS, biotinylated L1AD3, either alone (upper trace) or in a 1:1 ratio with non-biotinylated L1AD3 (lower trace), was added to triplicate wells to achieve the indicated final concentrations. After a 1-hour incubation at 37 degrees, plates were washed three times with PBS, and avidin-HRP was added. Enzyme substrate (ABTS) was added, and color development at 415 nm was monitored using an ELISA plate reader with printed output.\nThe lower two traces in the figure were developed as described above for FIG. 12, except that the target cells were human PBL's that had been isolated about 4 hours before the assay. […] In this case, 0.0125% trypsin was incubated with adherent cells for 10 min, followed by three washes and subsequent addition of soybean trypsin inhibitor.\n(§3) A biotin-avidin sorbant assay, similar to an ELISA procedure was performed to measure binding. In this assay, horseradish peroxidase-conjugated avidin was employed rather than an enzyme-linked second antibody. Mouse anti-human MHC-1 (anti HLA-A,-B,-C) antibody was used to hold CEM or normal human cells to the surface of 96-well microtiter plates.\n(§4) In order to investigate the nature of the binding site for L1AD3 on tumor cells, trypsin was added to the cells and subsequently quenched by adding enzyme inhibitor prior to measurements of binding, using biotinylated peptide in either the solid-phase or the fluorescent assay described above."}, "[4]": {"tested_on": "normal human peripheral blood lymphocytes", "assay": "biotin-avidin sorbant binding assay, normal human PBL's", "details": "with or without non-biotinylated L1AD3", "description": "FIG. 13 is a graph showing inhibition of specific binding of biotinylated L1AD3 to normal human peripheral blood lymphocytes by non-biotinylated L1AD3, and abolition of binding by pretreatment of CEM cells with trypsin. The lower two traces in the figure were developed as described above for FIG. 12, except that the target cells were human PBL's that had been isolated about 4 hours before the assay. […] In this case, 0.0125% trypsin was incubated with adherent cells for 10 min, followed by three washes and subsequent addition of soybean trypsin inhibitor.\nas §3"}, "[5]": {"tested_on": "CEM cells", "description": "To investigate peptide binding to cell surfaces, the peptide was modified by N-terminal biotinylation. […] A biotin-avidin sorbant assay, similar to an ELISA procedure was performed to measure binding. In this assay, horseradish peroxidase-conjugated avidin was employed rather than an enzyme-linked second antibody. Mouse anti-human MHC-1 (anti HLA-A,-B,-C) antibody was used to hold CEM or normal human cells to the surface of 96-well microtiter plates.\nas §4"}, "[6]": {"tested_on": "CEM cells", "remark": "listed apart in the source"}, "[7]": {"tested_on": "Jurkat cells", "assay": "thymidine incorporation into DNA of Jurkat cells", "format": "cell-based, human", "details": "read-out: EC50, inhibition of thymidine incorporation into DNA", "procedure": "as §1"}, "[8]": {"tested_on": "normal human peripheral white blood cells (PBL's)", "assay": "Annexin-V binding / phosphatidyl serine externalization, normal human white blood cells", "format": "cell-based"}, "[9]": {"tested_on": "normal human cells", "assay": "permeabilization of normal human cells (propidium iodide, ethidium bromide, trypan blue)", "format": "cell-based", "details": "ethidium bromide or trypan blue", "source_text": "(§2) The L1AD3 peptide composition, Seq. […] It is believed that there is an absence of the L1AD3 protein receptor on the surface of normal human white blood cells, whereas the L1AD3 protein receptor target is found in the surface of leukemic T-cells."}, "[10]": {"tested_on": "embryonic chicken heart cells", "assay": "beating of heart cells", "format": "cell-based", "details": "for time to cessation of beating of heart cells: 1 μM", "procedure": "as §2, §1"}, "[11]": {"tested_on": "CEM cells", "assay": "cell permeability to ethidium bromide / propidium iodide, CEM cells", "format": "cell-based, human", "details": "for cell permeability to ethidium bromide or propidium iodide: CEM cells", "procedure": "FIG. 11 is a graph showing changes in cell permeability to ethidium bromide following incubation with L1AD3 or with native CTX. CEM cells (10^6/ml) were incubated in quartz cuvets in a Shimidzu fluorescence spectrophotometer with 1 μg/ml ethidium bromide. Either CTX at a final concentration of 1.6 μM or L1AD3 at a final concentration of 40 μM was added, and readings were taken at 5-minute intervals, with excitation at 526 nm and emission measured at 608 nm.\nFlow cytometry using fluorescent Annexin-V distinguishes cells with externalized phosphatidyl serine. As long as the cell's plasma membrane remains intact, fluorescent dyes such as ethidium bromide or propidium iodide are excluded. A 40 μM concentration of L1AD3 caused approximately 93% of CEM cells to become Annexin-V-positive within 2.5 hours, which is unusually short for signs of apoptosis to occur. Camptothecin, a cancer chemotherapeutic agent administered in control experiments at 20 μM, caused only 33% of the cells to appear apoptotic.\nSince whole CTX can rapidly permeabilize leukemic T-lymphocytes, separate experiments using a fluorescence spectrophotometer were applied to examine changes in plasma membrane permeability to ethidium bromide following exposure of CEM cells either to L1AD3 or to CTX."}, "[12]": {"tested_on": "human leukemic T-lymphocytes", "details": "previous comparisons of native toxins (Stevens-Truss & Hinman, 1997); cited from earlier work"}, "[13]": {"tested_on": "CEM cells", "assay": "Annexin-V-FITC flow cytometry of phosphatidyl serine exposure (apoptosis), CEM cells", "format": "cell-based, human", "details": "20 μM, control experiments", "procedure": "FIGS. 10a–d are graphs showing comparisons of phosphatidyl serine exposure on the outer surface of CEM cells following a 2.5-hour incubation with or without 40 μM cyclized L1AD3. After incubation, cells were washed twice with cold PBS prior to adding FITC-conjugated Annexin-V. Flow cytometry using a B-D FACSCalibur was performed, and 10,000 cells were analyzed using the B-D CellQuest program. Individual cells are represented in the dot plots on the left (FIGS. 10a and 10c), and histograms of the same data are on the right (FIGS. 10b and d). Whereas untreated tumor cells show less than 6% spontaneous apoptosis (FIG. 10c, lower left quadrant), 93% of cells treated with L1AD3 undergo apoptosis after 2.5 hours (FIG. 10d, lower right quadrant).\nFlow cytometry using fluorescent Annexin-V distinguishes cells with externalized phosphatidyl serine. As long as the cell's plasma membrane remains intact, fluorescent dyes such as ethidium bromide or propidium iodide are excluded. A 40 μM concentration of L1AD3 caused approximately 93% of CEM cells to become Annexin-V-positive within 2.5 hours, which is unusually short for signs of apoptosis to occur. Camptothecin, a cancer chemotherapeutic agent administered in control experiments at 20 μM, caused only 33% of the cells to appear apoptotic. […]"}}, "note": "“Also recorded” adds a separate entry of the source. Like-named read-outs stand apart in the source and are kept apart here. Positions of bridges follow the written chain, without caps; N, C: chain ends. Residues, ends and D or L forms follow the SMILES beside them. No end group written: not given here. *: point of attachment. Biotin = O=C1N[C@H]2[C@H](CS[C@H]2CCCCC(=O)*)N1", "data": [{"compound": "CC(C)C[C@H](NC(=O)[C@H](CCCCN)NC(=O)[C@H](CC(N)=O)NC(=O)[C@H](CS)NC(=O)[C@H](CCCCN)NC(=O)[C@@H](N)CC(C)C)C(=O)N[C@H](C(=O)N1CCC[C@H]1C(=O)N[C@@H](CC(C)C)C(=O)N[C@@H](Cc1ccccc1)C(=O)N[C@@H](Cc1ccc(O)cc1)C(=O)N[C@@H](CCCCN)C(=O)N[C@H](C(=O)N[C@@H](CS)C(=O)O)[C@@H](C)O)C(C)C", "note": "[Linear L1AD3] (H-LKCNKLVPLFYKTC-OH; N-terminus and C-terminus assumed)", "values": [{"measurement": "EC50 of linear peptide relative to cyclized counterpart", "setting": "[1]", "result": "more than eight times"}, {"measurement": "EC50", "setting": "[1]", "result": "~43", "unit": "µM"}]}, {"compound": "Biotin-LKCNKLVPLFYKTC (cysteine pairing not given here) [biotinylated L1AD3]", "values": [{"measurement": "ability to reduce ATP levels in cancer cells", "setting": "[2]", "result": "retains its ability to reduce ATP levels"}, {"measurement": "binding to human cancer cells", "setting": "[3]", "result": "bound human cancer cells; also recorded: preserves its ability to bind cancer cells"}, {"measurement": "Kd", "setting": "[3]; saturable binding, read-out: apparent KD of binding to CEM cells", "result": "~6", "unit": "µM"}, {"measurement": "binding after pretreatment of cells with trypsin", "setting": "[3]", "result": "abolished"}, {"measurement": "binding after pretreatment of cells with trypsin", "setting": "[3]; listed as biotinylated peptide", "result": "abolished binding"}, {"measurement": "binding to normal human white blood cells / PBL's", "setting": "[4]", "result": "did not bind appreciably"}, {"measurement": "fluorescence increase over cells not incubated with biotinylated peptide", "setting": "[5]; avidin-FITC, CEM cells in suspension", "result": 48, "unit": "%"}, {"measurement": "binding after pretreatment of cells with trypsin", "setting": "[5]; fluorescent assay", "result": "abolished binding"}, {"measurement": "other activities after biotinylation", "setting": "[6]", "result": "significantly diminished"}]}, {"compound": "CC(C)C[C@@H]1NC(=O)[C@H](CCCCN)NC(=O)[C@H](CC(N)=O)NC(=O)[C@@H](NC(=O)[C@H](CCCCN)NC(=O)[C@@H](N)CC(C)C)CSSC[C@@H](C(=O)O)NC(=O)[C@H]([C@@H](C)O)NC(=O)[C@H](CCCCN)NC(=O)[C@H](Cc2ccc(O)cc2)NC(=O)[C@H](Cc2ccccc2)NC(=O)[C@H](CC(C)C)NC(=O)[C@@H]2CCCN2C(=O)[C@H](C(C)C)NC1=O", "note": "[L1AD3, Leu-Lys-Cys-Asn-Lys-Leu-Val-Pro-Leu-Phe-Tyr-Lys-Thr-Cys] (H-LKCNKLVPLFYKTC-OH; disulfide 3-14)", "values": [{"measurement": "EC50", "setting": "[1]", "result": "~5", "unit": "µM"}, {"measurement": "EC50", "setting": "[7]", "result": "~5", "unit": "µM"}, {"measurement": "externalization of phosphatidyl serine / Annexin-V binding in normal human white blood cells", "setting": "[8]; 40 μM peptide (same concentration as CEM test)", "result": "did not induce externalization of phosphatidyl serine; also recorded: not affected above background levels"}, {"measurement": "Annexin-V labelling of T-cells, B-cells and macrophages among PBL's", "setting": "[8]; 1-hour incubation, double-labeled with anti CD-3, CD-19, CD-14", "result": "all were within background levels"}, {"measurement": "permeabilizing effect on normal human cells", "setting": "[9]", "result": "no permeabilizing effect"}, {"measurement": "effect upon the beating of heart cells", "setting": "[10]; 40 μM, 2 hours", "result": "no effect"}]}, {"compound": "LKCNKLVPLFYKTCPAGKNLCYKMFMVATPKVPVKRGCIDVCPKSSLL VKYVCCNTDRCN (LKCNKLVPLFYKTCPAGKNLCYKMFMVATPKVPVKRGCIDVCPKSSLLVKYVCCNTDRCN; Naja naja atra) [CTX, parent 60-amino acid cytotoxin purified from the Taiwan cobra, Naja naja atra]", "values": [{"measurement": "time until cells began to admit ethidium bromide", "setting": "[11]; 1.6 μM, fluorescence spectrophotometer", "result": "≤ 15", "unit": "min"}, {"measurement": "time to induced permeability to propidium iodide", "setting": "[11]; 10 μM, fluorescence microscopy", "result": "≤ 30", "unit": "s"}, {"measurement": "cell permeability to ethidium bromide or propidium iodide", "setting": "[11]", "result": "rapidly became permeable"}, {"measurement": "time to cessation of beating of heart cells", "setting": "[10]", "result": "5 to 10", "unit": "s"}, {"measurement": "time to cessation of beating of heart cells", "setting": "[10]; listed as “parent” cardiotoxin", "result": "10 to 30", "unit": "s"}, {"measurement": "toxicity toward human leukemic T-lymphocytes", "setting": "[12]", "result": "highly toxic"}]}, {"compound": "CC[C@@]1(O)C(=O)OCc2c1cc1n(c2=O)Cc2cc3ccccc3nc2-1", "note": "[Camptothecin]", "values": [{"measurement": "cells apoptotic (Annexin-V)", "setting": "[13]", "result": 33, "unit": "%"}, {"measurement": "cells apoptotic (Annexin-V)", "setting": "[13]; listed as camptothecin", "result": 23, "unit": "%"}, {"measurement": "cell permeability to ethidium bromide or propidium iodide", "setting": "[11]", "result": "neither L1AD3 nor camptothecin caused increases in cell permeability"}]}]}
